From US12358948B2, “Neurotensinergic agonists and methods of using same preventing or treating pain” (priority 2019, dated 2025) come the findings set out here.

The subject of the test is ileum. The experiment in a line: Ileum relaxation assay ex vivo. The arrangement: species or system rat. To be noted: 10^−11 to 10^−6 M, after contraction with carbachol. On the procedure:
The functional ileum bioassay was carried out as described in detail elsewhere. (Van der Poorten, O., Van Den Hauwe, R., Eiselt, E., Betti, C., Guillemyn, K., Chung, N. N., Hall, F., Bihel, F., Schiller, P. W., Tourwé, D., Sarret, P., Gendron, L, . . . Ballet, S. (2017). X-Space Screening of Dermorphin-Based Tetrapeptides through Use of Constrained Arylazepinone and Quinolinone Scaffolds. ACS medicinal chemistry letters, 8(11), 1177-1182) Briefly, rats were euthanized, and 2 cm ileum segments were dissected out before removal of extraneous fat and connective tissue.
The ileum was then mounted under 0.5-g tension in a 10 mL organ bath containing warmed (37° C.) and oxygenated (95% O2, 5% CO2) Krebs solution (6.9 g/L NaCl, 0.145 g/L MgSO4, 2.1 g/L NaHCO3, 0.35 g/L KCl, 0.165 g/L KH2PO4, 1.98 g/L dextrose and 0.28 g/L CaCl2)). […] Contractions of the muscle were recorded via an isometric force transducer (159901A, Radnoti, Monrovia, CA, USA). […]
Each concentration of the compounds tested were followed by 2×15-min washout periods in Krebs solution to allow full relaxation. Dose-response curves were obtained with NT (8-13) (10^−11 to 10^−6) as standard for each ileum and for compound 34(10^−11 to 10^−5) and IC50 values were determined. […]
Data are expressed as mean±standard errors of the mean (SEM). […]

Broadly, the IC50 is the midpoint of a concentration-inhibition curve. Higher therefore signals weaker potency. In turn, `CC[C@H](C)[C@H](NC(=O)[C@H](Cc1ccc(O)cc1)NC(=O)[C@@H]1CCCN1C(=O)[C@H](CCCNC(=N)N)NC(=O)[C@@H](N)CCCNC(=N)N)C(=O)N[C@@H](CC(C)C)C(=O)O` [NT(8-13), Neurotensin 8-13, reference compound] gave an IC50 of 3.9 nM.
